According to patent publication US9139577B2, “Sulfoximine substituted quinazolines for pharmaceutical compositions” (Boehringer Ingelheim International GmbH, priority 2013, dated 2015):

Assays:
MNK2a = MNK2a (Homo sapiens (Human), UniProt Q9HBH9); assay: MNK2a in vitro kinase assay (Assay 2), ADP-Glo; assay type: biochemical; conditions: read-out: MNK2 IC50
Description: B. MNK2a In vitro Kinase Assay (Assay 2)
ASSAY SETUP: The inhibition of kinase activity of MNK2a was assessed using pre-activated GST-MNK2a. The white, 384-well OptiPlate F plates were purchased from PerkinElmer. The ADP-Glo Kinase Assay (including ultra pure ATP) was purchased from Promega (V9103). Activated MNK2a was obtained as described in WO2011/104340. […] ID No. 5 of WO 2011/104340 by the C-terminal —CONH2 group, was purchased from Thermo Fisher Scientific. All other materials were of highest grade commercially available. Compounds are tested in either serial dilutions or single dose concentrations. The compound stock solutions are 10 mM in 100% DMSO The serial compound dilutions are prepared in 100% DMSO followed by 1:27.3 intermediate dilution in assay buffer. The final DMSO concentration in assay will be <3%. In the 384-well plates 3 μl of test compound from the intermediate dilution is mixed with 4 μl of the activated MNK2 enzyme (final concentration of 10 nM) and 4 μl of the peptide (final concentration of 25 μM)/ultra pure ATP (final concentration of 20 μM), all dissolved in assay buffer. This step is followed by an incubation time of 90 min, then 10 μl of ADP Glo reagent are added, followed by 40 min of incubation. Then 20 μl of kinase detection reagent are admixed. The plates are sealed and after an incubation period of 30 min, the luminescence signal is measured in an Envision reader to determine the amount of produced ADP. All incubation steps are performed at room temperature. The assay buffer consists of 20 mM HEPES, 2 mM DTT, 0.01% BSA, 20 mM MgCl2 and 0.1% Pluronic F-127.
The luminescent signal generated is proportional to the ADP concentration produced and is correlated with activated MNK2 activity. The analysis of the data is performed by the calculation of the percentage of ATP consumption of activated MNK2 in the presence of the test compound compared to the consumption of ATP in the presence of activated MNK2 without compound. (RLU(sample)−RLU(low control))*100/(RLU(high value)−RLU(low control)) [RLU=relative luminescence units]
[…] values based on dose response curves are calculated with the AssayExplorer software.

MNK1 = MNK1 (Homo sapiens (Human), UniProt Q9BUB5); assay: MNK1 in vitro kinase assay (Assay 3), Z'-LYTE; assay type: biochemical; conditions: for inhibition at 1 µM: compound concentration of 1 μM, read-out: MNK1 % INH
From the text: C. MNK1 In vitro Kinase Assay (Assay 3)
MNK1 Data can be obtained from the MNK1 Z′-LYTE® assay. The MNK1 Z′-LYTE® screening protocol and assay conditions are also described on www.invitrogen.com.
The assay is described as follows:
The Z′-LYTE® biochemical assay employs a fluorescence-based, coupled-enzyme format and is based on the differential sensitivity of phosphorylated and non-phosphorylated peptides to proteolytic cleavage. The peptide substrate is labeled with two fluorophores—one at each end—that make up a FRET pair.
In the primary reaction, the kinase transfers the gamma-phosphate of ATP to a single tyrosine, serine or threonine residue in a synthetic FRET-peptide. In the secondary reaction, a site-specific protease recognizes and cleaves non-phosphorylated FRET-peptides. Phosphorylation of FRET-peptides suppresses cleavage by the Development Reagent. Cleavage disrupts FRET between the donor (i.e., coumarin) and acceptor (i.e., fluorescein) fluorophores on the FRET-peptide, whereas uncleaved, phosphorylated FRET-peptides maintain FRET. A ratiometric method, which calculates the ratio (the Emission Ratio) of donor emission to acceptor emission after excitation of the donor fluorophore at 400 nm, is used to quantitate reaction progress, as shown in the equation below.
ASSAY SETUP: The inhibition of kinase activity of MNK1a was assessed using pre-activated GST-MNK1a. The 2×MKNK1 (MNK1) mixture is prepared in 50 mM HEPES pH 7.5, 0.01% BRIJ-35, 10 mM MgCl2, 4 mM MnCl2, 1 mM EGTA, 2 mM DTT.
The Test Compounds are screened in 1% DMSO (final) in the well.
All Peptide/Kinase Mixtures are diluted to a 2× working concentration in the MNK1 Kinase Buffer.
All ATP Solutions are diluted to a 4× working concentration in Kinase Buffer (50 mM HEPES pH 7.5, 0.01% BRIJ-35, 10 mM MgCl2, 1 mM EGTA).
Development Reagent Solution:
The Development Reagent is diluted in Development Buffer
1. 2.5 μL—4× Test Compound
2. 5 μL—2× Peptide/Kinase Mixture
5. 60-minute Kinase Reaction incubation at room temperature
6. 5 μl—Development Reagent Solution
8. 60-minute Development Reaction incubation at room temperature
9. Read on fluorescence plate reader and analyze the data
The following equations are used for each set of data points: […]
Correction for Background Fluorescence: FlSample-FlTCFl Ctl
% Phosphorylation (% Phos): 1−((Emission Ratio×F100%)−C100%)/((C0%−C100%)+[Emission Ratio×(F100%−F0%)])*100%
% Inhibition: 1−(% PhosSample/% Phos0% Inhibition Ctl)*100
Fl=Fluorescence Intensity
C100%=Average Coumarin emission signal of the 100% Phos. Control
C0%=Average Coumarin emission signal of the 0% Phos. Control
F100%=Average Fluorescein emission signal of the 100% Phos. Control
F0%=Average Fluorescein emission signal of the 0% Phos. Control
SelectScreen® Kinase Profiling Service uses XLfit from IDBS.

Chain of MNK1 (Q9BUB5 other isoform, or with tags, fused parts or gaps): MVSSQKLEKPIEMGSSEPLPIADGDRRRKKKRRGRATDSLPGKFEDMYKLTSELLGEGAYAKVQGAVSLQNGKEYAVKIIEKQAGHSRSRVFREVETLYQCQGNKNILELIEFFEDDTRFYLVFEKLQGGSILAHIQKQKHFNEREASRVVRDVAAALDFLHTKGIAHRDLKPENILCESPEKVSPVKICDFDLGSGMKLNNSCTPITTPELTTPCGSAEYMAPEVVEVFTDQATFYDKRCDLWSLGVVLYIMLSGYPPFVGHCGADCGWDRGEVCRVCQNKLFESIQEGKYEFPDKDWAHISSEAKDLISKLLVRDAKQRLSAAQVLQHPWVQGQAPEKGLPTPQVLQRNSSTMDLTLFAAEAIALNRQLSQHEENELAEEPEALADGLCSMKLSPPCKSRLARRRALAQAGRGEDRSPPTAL
Chain of MNK2a (Q9HBH9 whole entry): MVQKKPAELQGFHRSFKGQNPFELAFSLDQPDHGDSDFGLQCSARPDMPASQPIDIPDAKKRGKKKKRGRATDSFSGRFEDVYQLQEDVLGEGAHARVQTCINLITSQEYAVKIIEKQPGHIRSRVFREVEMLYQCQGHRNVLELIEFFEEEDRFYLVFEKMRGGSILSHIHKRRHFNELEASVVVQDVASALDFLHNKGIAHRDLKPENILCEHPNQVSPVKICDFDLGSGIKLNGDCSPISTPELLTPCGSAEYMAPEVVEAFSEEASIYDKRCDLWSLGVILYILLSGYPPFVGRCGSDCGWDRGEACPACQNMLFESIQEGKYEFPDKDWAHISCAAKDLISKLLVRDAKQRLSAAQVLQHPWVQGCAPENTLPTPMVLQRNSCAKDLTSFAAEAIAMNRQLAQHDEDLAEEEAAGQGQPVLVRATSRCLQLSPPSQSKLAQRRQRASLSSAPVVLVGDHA

| SMILES | IC50 (MNK2a) | inhibition at 1 µM (MNK1) | IC50 (MNK1) |
| --- | --- | --- | --- |
| CS(C)(=O)=Nc1cc(C(F)(F)F)c2c(Nc3ccc(F)cc3OC(CF)CF)ncnc2c1 [Example 1.002] | 6 nM | 59% | – |
| C[C@@H](Oc1cc(F)ccc1Nc1ncnc2cc(N=S(C)(C)=O)cc(Cl)c12)C(F)(F)F [Example 1.003] | 1 nM | 95% | – |
| O=S1(=Nc2cc(C(F)(F)F)c3c(Nc4ccc(F)cc4OC(CF)CF)ncnc3c2)CCCC1 [Example 1.004] | 3 nM | 79% | – |
| CCS(C)(=O)=Nc1cc(Cl)c2c(Nc3cccnc3O[C@H](C)c3cc(C)no3)ncnc2c1 (some centres unmarked) [Example 1.005] | 2 nM | 98% | – |
| CC(CF)Oc1cc(F)ccc1Nc1ncnc2cc(N=S(C)(C)=O)cc(F)c12 (centres unmarked) [Example 1.006] | 5 nM | 96% | – |
| CCOC(Oc1ncccc1Nc1ncnc2cc(N=S(C)(C)=O)cc(C)c12)C(F)(F)F (centres unmarked) [Example 1.008] | 8 nM | 63% | – |
| O=S1(=Nc2cc(C(F)(F)F)c3c(Nc4ccc(F)cc4OC(CF)CF)ncnc3c2)CCNCC1 [Example 1.009] | 26 nM | 64% | – |
| Cc1cc(N=S2(=O)CCCC2)cc2ncnc(Nc3ccc(F)cc3OC(CF)CF)c12 [Example 1.011] | 2 nM | – | 34 nM |
| Cc1cc(C(C)Oc2cc(C(N)=O)ccc2Nc2ncnc3cc(N=S(C)(C)=O)cc(C)c23)on1 (centres unmarked) [Example 1.012] | 6 nM | 96% | – |
| Cc1cc(N=S(C)(C)=O)cc2ncnc(Nc3ccc(C(N)=O)cc3OC(C)C)c12 [Example 1.014] | 5 nM | 97% | – |
| Cc1cc(N=S(C)(C)=O)cc2ncnc(Nc3ccc(F)cc3OC(C)CF)c12 (centres unmarked) [Example 1.015] | 54 nM | 100% | – |
| Cc1cc([C@@H](C)Oc2ncccc2Nc2ncnc3cc(N=S(C)(C)=O)cc(Cl)c23)on1 [Example 1.016] | 1 nM | – | 53 nM |
| CS(C)(=O)=Nc1cc(F)c2c(Nc3ccc(F)cc3OC(CF)CF)ncnc2c1 [Example 1.018] | 6 nM | 93% | – |
| Cc1cc([C@@H](C)Oc2cc(F)ccc2Nc2ncnc3cc(N=S(C)(C)=O)cc(Cl)c23)on1 [Example 1.019] | 1 nM | – | 54 nM |
| CC(Oc1cc(F)ccc1Nc1ncnc2cc(N=S(C)(C)=O)cc(F)c12)C(F)(F)F (centres unmarked) [Example 1.020] | 7 nM | 80% | – |
| O=S1(=Nc2cc(C(F)(F)F)c3c(Nc4ccc(F)cc4OC(CF)CF)ncnc3c2)CCOCC1 [Example 1.021] | 1 nM | 52% | – |
| CS(C)(=O)=Nc1cc(C2CC2)c2c(Nc3ccc(F)cc3OC(CF)CF)ncnc2c1 [Example 1.022] | 3 nM | 79% | – |

Next, values leading:

| IC50 (MNK2a) | inhibition at 1 µM (MNK1) | IC50 (MNK1) | SMILES |
| --- | --- | --- | --- |
| – | 45% | – | Cc1cc(N=S(C)(C)=O)cc2ncnc(Nc3ccc(F)cc3O[C@H](C)C(=O)N(C)CCc3ccccc3)c12 [Example 4.037] |
| – | 70% | – | COC1CCN(C(=O)[C@@H](C)Oc2cc(F)ccc2Nc2ncnc3cc(N=S(C)(C)=O)cc(C)c23)CC1 [Example 4.073] |
| 1 nM | – | – | Cc1cc(N=S2(=O)CCC2)cc2ncnc(Nc3ccc(F)cc3O[C@H](C)C(=O)NC(CF)CF)c12 [Example 4.131] |
| 1 nM | – | – | Cc1cc(N=S2(=O)CCC2)cc2ncnc(Nc3ccc(F)cc3O[C@H](C)C(=O)NC(C)C#N)c12 (some centres unmarked) [Example 4.132] |
| 4 nM | – | – | C[C@@H](Oc1cc(F)ccc1Nc1ncnc2cc(N=S(C)(C)=O)cc(F)c12)C(=O)NCC(F)F [Example 4.133] |
| 3 nM | – | – | CC(NC(=O)[C@@H](C)Oc1cc(F)ccc1Nc1ncnc2cc(N=S(C)(C)=O)cc(Cl)c12)C(F)F (some centres unmarked) [Example 4.134] |
| 2 nM | – | – | C[C@H](NC(=O)[C@@H](C)Oc1cc(F)ccc1Nc1ncnc2cc(N=S(C)(C)=O)cc(Cl)c12)C(F)(F)F [Example 4.135] |
| 1 nM | – | – | C[C@@H](C#N)NC(=O)[C@@H](C)Oc1cc(F)ccc1Nc1ncnc2cc(N=S3(=O)CCC3)cc(Cl)c12 [Example 4.137] |
| 1 nM | – | – | Cc1cc(N=S2(=O)CCC2)cc2ncnc(Nc3ccc(F)cc3O[C@H](C)C(=O)NCC(F)(F)F)c12 [Example 4.139] |
| 1 nM | – | – | Cc1cc(N=S2(=O)CCC2)cc2ncnc(Nc3ccc(Cl)nc3O[C@H](C)C(=O)N[C@@H](C)C#N)c12 [Example 4.140] |
| 1 nM | – | – | Cc1cc(N=S2(=O)CCC2)cc2ncnc(Nc3ccc(F)cc3O[C@H](C)C(=O)NCC(F)F)c12 [Example 4.141] |
| 2 nM | – | – | Cc1cc(N=S(C)(C)=O)cc2ncnc(Nc3ccc(Cl)cc3O[C@H](C)C(=O)NCC(F)F)c12 [Example 4.142] |
| 2 nM | – | – | C[C@H](NC(=O)[C@@H](C)Oc1cc(F)ccc1Nc1ncnc2cc(N=S3(=O)CCC3)cc(C(F)F)c12)C(F)(F)F [Example 4.143] |
| 2 nM | – | – | Cc1cc(N=S2(=O)CCC2)cc2ncnc(Nc3ccc(F)cc3O[C@H](C)C(=O)NCCCF)c12 [Example 4.144] |
| 2 nM | – | – | Cc1cc(N=S2(=O)CCC2)cc2ncnc(Nc3ccc(Cl)cc3O[C@H](C)C(=O)N[C@H](C)C(F)(F)F)c12 [Example 4.145] |
| 4 nM | – | – | CC(NC(=O)[C@@H](C)Oc1cc(F)ccc1Nc1ncnc2cc(N=S3(=O)CCC3)cc(C(F)F)c12)C(F)F (some centres unmarked) [Example 4.146] |
| 3 nM | – | – | Cc1cc(N=S2(=O)CCC2)cc2ncnc(Nc3ccc(Cl)cc3O[C@H](C)C(=O)N[C@@H](C)C#N)c12 [Example 4.147] |
| 2 nM | – | – | COC(=O)N1CCS(=O)(=Nc2cc(C)c3c(Nc4ccc(F)cc4O[C@H](C)c4cc(C)no4)ncnc3c2)CC1 [Example 5.013] |
| 5 nM | – | – | COc1cc(N=S2(=O)CCC2)cc2ncnc(Nc3ccc(F)cc3O[C@H](C)C(=O)N[C@@H](C)C(F)(F)F)c12 [Example 6.001] |
| 2 nM | – | – | COc1cc(N=S2(=O)CCC2)cc2ncnc(Nc3ccc(F)cc3O[C@H](C)C(=O)NCC(F)F)c12 [Example 6.002] |
| 4 nM | – | – | CCOc1cc(N=S2(=O)CCC2)cc2ncnc(Nc3ccc(F)cc3O[C@H](C)C(=O)NCC(F)(F)F)c12 [Example 6.003] |
| 3 nM | – | – | COc1cc(N=S(C)(C)=O)cc2ncnc(Nc3cccnc3O[C@H](C)C(=O)NCC(F)(F)F)c12 [Example 6.004] |
| 3 nM | – | – | Cc1cc(N=S(C)(C)=O)cc2ncnc(Nc3ccc(F)cc3O[C@H](CO)C(=O)NCC(F)(F)F)c12 [Example 7.011] |
| 46 nM | – | – | Cc1cc(N=S(C)(C)=O)cc2ncnc(Nc3ccc(F)cc3O[C@H](CO)C(N)=O)c12 [Example 7.012] |
| 4 nM | – | – | Cc1cc(N=S(C)(C)=O)cc2ncnc(Nc3ccc(F)cc3O[C@H](CF)C(=O)NCC(F)(F)F)c12 [Example 7.013] |
